# Measured values taken from patent publication US20230051589A1, “COMPOUNDS AND COMPOSITIONS FOR TREATING CONDITIONS ASSOCIATED WITH NLRP ACTIVITY” (Novartis AG, priority 2018, published 2023).
# Like-named read-outs stand apart in the source and are kept apart here.
# Tested on: IL-1β production in PMA-differentiated THP-1 cells
# Assay: IL-1β production in PMA-differentiated THP-1 cells stimulated with gramicidin (hTHP-1 assay, 2% fetal bovine serum; Procedures 1-3)
# Type: cell-based, human
# Method in brief: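 IL-1β released into supernatants was read by HTRF after 2 h gramicidin (5 μM) challenge. Before challenge, compounds (3-fold dilutions, top 100 μM, 0.37% DMSO) were given 1 h on THP-1 cells differentiated with PMA (20 ng/ml, 16-18 h) and held in 2% FBS medium.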
# [1] = Homo sapiens, THP-1, Table B3, hTHP-1 assay containing 2% fetal bovine serum, gramicidin stimulation, IL-1β readout, read-out: hTHP-1 IC50
# [2] = Homo sapiens, THP-1, hTHP-1 assay containing 2% fetal bovine serum, Table B2, class symbols, read-out: IC50
# [3] = Table B3, hTHP-1 assay containing 2% fetal bovine serum, gramicidin stimulation, IL-1β readout, read-out: hTHP-1 IC50
# [4] = hTHP-1 assay containing 2% fetal bovine serum, Table B2, class symbols, read-out: IC50
# [5] = Table B1, hTHP-1 assay containing 2% fetal bovine serum, gramicidin stimulation, IL-1β readout, read-out: hTHP-1 IC50 (average)
smiles,measurement,setting,value
"NS(=O)(=NC(=O)Nc1c2c(cc3c1CCC3)CCC2)c1ccc([C@@H]2CCCN2)s1 (stereo partly drawn) [Example 730, N′-((1,2,3,5,6,7-hexahydro-s-indacen-4-yl)carbamoyl)-5-((S)-pyrrolidin-2-yl)thiophene-2-sulfonimidamide]",IC50,[1],200 to 1000 nM
"NS(=O)(=NC(=O)Nc1c2c(cc3c1CCC3)CCC2)c1sc(C(O)(CO)CO)nc1CO (centres unmarked) [Example 733, N′-((1,2,3,5,6,7-hexahydro-s-indacen-4-yl)carbamoyl)-4-(hydroxymethyl)-2-(1,2,3-trihydroxypropan-2-yl)thiazole-5-sulfonimidamide]",IC50,[1],40 to 200 nM
"CC(O)(CO)c1ncc(S(N)(=O)=NC(=O)Nc2c3c(cc4c2CCC4)CCC3)s1 (single isomer, unassigned) [Example 626]",IC50,[2],8 to 40 nM
CCn1ccc([S@](N)(=O)=NC(=O)Nc2c3c(cc4c2CCC4)CCC3)n1 [Compound 904a],IC50,[2],40 to 200 nM
"CC1=CC(C)=[N+]2C1=Cc1ccc(CCC(=O)N(C)Cc3ccc([S@@](=N)(=O)NC(=O)Nc4c5c(cc6c4CCC6)CCC5)cc3)n1[B-]2(F)F [Example 745, (S)-3-(5,5-difluoro-7,9-dimethyl-5H-5λ4,6λ4-dipyrrolo[1,2-c:2′,1′-f][1,3,2]diazaborinin-3-yl)-N-(4-(N′-((1,2,3,5,6,7-hexahydro-s-indacen-4-yl)carbamoyl)sulfamidimidoyl)benzyl)-N-methylpropanamide]",IC50,[3],1000 to 5000 nM
"COC1CCc2c(csc2S(N)(=O)=NC(=O)Nc2c3c(cc4c2CCC4)CCC3)C1 (single isomer, unassigned) [Example 851, (R, R) or (S, R)-N′-((1,2,3,5,6,7-hexahydro-s-indacen-4-yl)carbamoyl)-5-methoxy-4,5,6,7-tetrahydrobenzo[c]thiophene-1-sulfonimidamide]",IC50,[3],200 to 1000 nM
"CNCc1csc(S(N)(=O)=NC(=O)Nc2c3c(cc4c2CC4)CCC3)c1 (single isomer, unassigned) [Example 838, (S) or (R)-4-((methylamino)methyl)-N′-((2,4,5,6-tetrahydro-1H-cyclobuta[f]inden-3-yl)carbamoyl)thiophene-2-sulfonimidamide]",IC50,[3],200 to 1000 nM
"CC(C)(O)c1cc(C#N)cc(S(N)(=O)=NC(=O)Nc2c3c(c(C#N)c4c2CCC4)CCC3)c1 (single isomer, unassigned) [Example 578, (R) or (S)-3-cyano-N′-((8-cyano-1,2,3,5,6,7-hexahydro-s-indacen-4-yl)carbamoyl)-5-(2-hydroxypropan-2-yl) benzenesulfonimidamide]",IC50,[4],1000 to 5000 nM
"CC(C)c1ccc(S(N)(=O)=NC(=O)Nc2c3c(cc4c2CCC4)CCC3)cn1 (single isomer, unassigned) [Example 402, (S) or (R)-N′-((1,2,3,5,6,7-hexahydro-s-indacen-4-yl)carbamoyl)-6-isopropyl-pyridine-3-sulfonimidamide]",IC50,[5],1000 to 5000 nM
"CNCc1cc(F)c(S(N)(=O)=NC(=O)Nc2c3c(cc4c2CCC4)CCC3)s1 (single isomer, unassigned) [Example 570, (R) or (S)-3-fluoro-N′-((1,2,3,5,6,7-hcxahydro-s-indacen-4-yl)carbamoyl)-5-((methylamino)methyl) thiophene-2-sulfonimidamide]",IC50,[4],8 to 40 nM
"CN(C)Cc1ccc([S@](N)(=O)=NC(=O)Nc2c3c(cc4c2CCC4)CCC3)cc1F (single isomer, unassigned) [Example 605, (R) or (S)-4-((dimethylamino)methyl)-3-fluoro-N′-((1,2,3,5,6,7-hexahydro-s-indacen-4-yl)carbamoyl) benzenesulfonimidamide]",IC50,[4],200 to 1000 nM
"CC(C)(O)c1csc(S(N)(=O)=NC(=O)Nc2c3c(cc4c2CCC4=O)CCC3)c1 (single isomer, unassigned) [Example 599, (S) or (R)-4-(2-hydroxypropan-2-yl)-N′-((1-oxo-1,2,3,5,6,7-hexahydro-s-indacen-4-yl)carbamoyl) thiophene-2-sulfonimidamide]",IC50,[4],5000 to 30000 nM
"CC(=O)N(C)Cc1ccc(S(N)(=O)=NC(=O)Nc2c3c(cc4c2CCC4)CCC3)cc1 (single isomer, unassigned) [Example 366, (R) or (S)-N-(4-N′-((1,2,3,5,6,7-hexahydro-s-indacen-4-yl)carbamoyl)-sulfamidimidoyl)benzyl)-N-methylacetamide]",IC50,[5],1000 to 5000 nM
"C#CCCC(=O)N(C)Cc1ccc(S(N)(=O)=NC(=O)Nc2c3c(cc4c2CCC4)CCC3)cc1 (single isomer, unassigned) [Example 313, (R) or (S)-N-(4-(N′-((1,2,3,5,6,7-hexahydro-s-indacen-4-yl)carbamoyl)-sulfamidimidoyl)benzyl)-N-methylpent-4-ynamide]",IC50,[5],1000 to 5000 nM
"CN(C)Cc1cnc(S(N)(=O)=NC(=O)Nc2c3c(cc4c2CCC4)CCC3)c(F)c1 (centres unmarked) [Example 497, 5-((Dimethylamino)methyl)-3-fluoro-N′-((1,2,3,5,6,7-hexahydro-s-indacen-4-yl)carbamoyl)pyridine-2-sulfonimidamide]",IC50,[2],1000 to 5000 nM
"COCCOC[C@@](C)(O)c1ncc(S(N)(=O)=NC(=O)Nc2c3c(cc4c2CCC4)CCC3)s1 (single isomer, unassigned) [Example 794, (R) or (S)-N′-((1,2,3,5,6,7-hexahydro-s-indacen-4-yl)carbamoyl)-2-((R)-2-hydroxy-1-(2-methoxyethoxy)propan-2-yl)thiazole-5-sulfonimidamide]",IC50,[3],8 to 40 nM
"CC(C)(O)c1cnc(S(N)(=O)=NC(=O)Nc2c3c(cc4c2CCC4O)CCC3)s1 (single isomer, unassigned) [Example 658, (R,S) or (R,R)-N′-((1-hydroxy-1,2,3,5,6,7-hexahydro-5-indacen-4-yl)carbamoyl)-5-(2-hydroxypropan-2-yl)thiazole-2-sulfonimidamide]",IC50,[4],5000 to 30000 nM
"CN(C)C(c1ccc(S(N)(=O)=NC(=O)Nc2c3c(cc4c2CCC4)CCC3)cc1)C(F)(F)F (centres unmarked) [Example 492, 4-(1-(Dimethylamino)-2,2,2-trifluoroethyl)-N′-((1,2,3,5,6,7-hexahydro-s-indacen-4-yl)carbamoyl)benzenesulfonimidamide]",IC50,[2],1000 to 5000 nM
"NS(=O)(=NC(=O)Nc1c2c(cc3c1CCC3)CCC2)c1ccc(C(F)F)nc1 (centres unmarked) [Example 485, 6-(Difluoromethyl)-N′-((1,2,3,5,6,7-hexahydro-s-indacen-4-yl)carbamoyl)pyridine-3-sulfonimidamide]",IC50,[2],1000 to 5000 nM
CC(C)c1cnc([S@](N)(=O)=NC(=O)Nc2c3c(cc4c2CCC4)CCC3)c(F)c1 [Compound 903b],IC50,[2],5000 to 30000 nM
"CC(NC1CCC1)c1ccc(S(N)(=O)=NC(=O)Nc2c3c(cc4c2CC4)CCC3)c(F)c1 (single isomer, unassigned) [Example 849, (S, S) or (R, S) -4-(1-(cyclobutylamino)ethyl)-2-fluoro-N′-((2,4,5,6-tetrahydro-1H-cyclobuta[f]inden-3-yl)carbamoyl)benzenesulfonimidamide]",IC50,[3],5000 to 30000 nM
"CN(C)C(c1ccc(S(N)(=O)=NC(=O)Nc2c3c(cc4c2CCC4)CCC3)cc1)C(F)(F)F (single isomer, unassigned) [Example 663]",IC50,"Homo sapiens, THP-1, hTHP-1 assay containing 2% fetal bovine serum, Table B2, given as bound, read-out: IC50",> 30000 nM
"NCc1ccc(S(N)(=O)=NC(=O)Nc2c3c(cc4c2CCC4)CCC3)cc1 (single isomer, unassigned) [Example 411, (R) or (S)-4-(aminomethyl)-N′-((1,2,3,5,6,7-hexahydro-5-indacen-4-yl)carbamoyl)-benzenesulfonimidamide]",IC50,[5],1000 to 5000 nM
